This note sets out measurements from patent US20250376498A1, “FUSION PROTEINS COMPRISING AN IMPROVED GLP-1 RECEPTOR AGONIST AND USES THEREOF” (Guangzhou Innogen Pharmaceutical Group Co., Ltd., priority 2022, published 2025).

Entries after “also recorded” stand apart in the source; their conditions may differ.

The subject of test [1] is SH-SY5Y neuronal cells. The test is described as follows: Apoptosis in TNF-α-induced SH-SY5Y cells (cleaved-caspase 3 immunofluorescence). The format is cell-based. Particulars: 60 ng/ml TNF-α, 48 hours; YN-011 10, 100, 500 nM; GABA 1, 10, 100 μM; combination 100 μM GABA + 100 nM YN-011. How it is done:
The experimental procedure is as follows: • 1) Digest the SH-SY5Y neuronal cells in a 10 cm culture dish using 0.25% trypsin to prepare a single-cell suspension. Seed the single-cell suspension into a 24-well plate, placing a sterile coverslip in each well. • 2) Place the culture plate in a CO2 incubator and pre-culture overnight at 37° C. with 5% CO2 to allow the cells to adhere. • 3) Using medium containing 5% FBS, treat the cells in each well with 60 ng/ml TNF-α alone or co-treated with 10, 100, or 500 nM YN-011 at 37° C. for 48 hours. […]

The subject of test [2] is SH-SY5Y neuronal cells. The test is described as follows: Apoptosis in TNF-α-induced SH-SY5Y cells (Annexin V-FITC/PI flow cytometry). The format is cell-based. The conditions noted are these: 60 ng/ml TNF-α, 48 hours; YN-011 10, 100, 500 nM; GABA 1, 10, 100 μM; combination 100 μM GABA + 100 nM YN-011. How it is done:
Digest the SH-SY5Y neuronal cells in a 10 cm culture dish using 0.25% trypsin to prepare a single-cell suspension. Seed the single-cell suspension into a 12-well plate. Place the culture plate in a CO2 incubator and pre-culture overnight at 37° C. with 5% CO2 to allow the cells to adhere. Using medium containing 5% FBS, treat the cells in each well with 60 ng/ml TNF-α alone or co-treated with 10, 100, or 500 nM YN-011 at 37° C. for 48 hours. Each drug treatment is performed in three replicate wells. Collect the cells and digest the cells with 0.25% trypsin without EDTA for 1 minute. Transfer the cell suspension to a 1.5 ml EP tube, centrifuge at 1000 rpm for 5 minutes, and pellet the cells at the bottom of the tube. Resuspend […] in 100 μl Binding Buffer, add 5 μl of PI and 5 μl of Annexin V-FITC solution, and incubate at room temperature in the dark for 15 minutes. Add 400 μl of Binding Buffer to each tube, and detect using a flow cytometer (Annexin V-FITC excitation wavelength: 488 nm, emission wavelength:
520 nm; PI excitation wavelength: 535 nm, emission wavelength: 617 nm). Count the number of Annexin V-FITC positive cells and PI negative cells in each sample.
Please refer to section 8.14 for the experimental procedure, but the drug treatment in this experiment is different from that in section 8.14. […]

On to `NCCCC(=O)O` [GABA, γ-aminobutyric acid], for which the “apoptosis in TNF-α-induced neuronal cells (cleaved-caspase 3 positive cells)” value with SH-SY5Y neuronal cells [1] was “reduces apoptosis; also recorded: reduction of apoptosis”. Also, the “apoptosis in TNF-α-induced neuronal cells (Annexin V-FITC positive, PI negative cells)” value in the test with SH-SY5Y neuronal cells [2] is “reduces apoptosis; also recorded: reduction of apoptosis”.

B1: YN-011: GLP-1 fusion protein of SEQ ID NO: 7: GLP-1 (A8G, G22E, R36G), linker peptide and IgG2/Fc domain (C222S, A330S, P331S) (protein)
chain: HGEGTFTSDVSSYLEEQAAKEFIAWLVKGGGSSGAPPPSGGGGSERKSCVECPPCPAPPVAGPSVFLFPPKPKDTLMISRTPEVTCVVVDVSHEDPEVQFNWYVDGVEVHNAKTKPREEQFNSTFRVVSVLTVVHQDWLNGKEYKCKVSNKGLPSSIEKTISKTKGQPREPQVYTLPPSREEMTKNQVSLTCLVKGFYPSDIAVEWESNGQPENNYKTTPPMLDSDGSFFLYSKLTVDKSRWQQGNVFSCSVMHEALHNHYTQKSLSLSPG
Take B1: the “apoptosis in TNF-α-induced neuronal cells (cleaved-caspase 3 positive cells)” value in the test on SH-SY5Y neuronal cells [1] is “significantly reduces apoptosis; also recorded: reduction of apoptosis”. Besides, the “apoptosis in TNF-α-induced neuronal cells (Annexin V-FITC positive, PI negative cells)” value with SH-SY5Y neuronal cells [2] is recorded as “significantly reduces apoptosis; also recorded: reduction of apoptosis”.
